According to ChEMBL document CHEMBL1201862, “PubChem BioAssay data set” (2004):
The source made the active and inactive calls.

Legend:
Paired box protein Pax-8 = Paired box protein Pax-8 (Homo sapiens, UniProt Q06710); experiment: inhibitors of PAX8-driven TPO luciferase reporter, dose response, RMG-I cells, cherry-pick (AID 687027); type: functional, cell-based;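 note: luciferase reporter driven by Pax8 target thyroperoxidase promoter measured by SteadyGlo luminescence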
[1] = NIH:OVCAR-3 ovarian cancer cell cytotoxicity, dose response, PAX8 inhibitor project, plate reader, dry powder samples (AID 743044); type: functional, cell-based
[2] = IGROV1 ovarian cancer cell cytotoxicity, dose response, PAX8 inhibitor project, plate reader, dry powder samples (AID 743043); type: functional, cell-based; conditions: IGROV-1
[3] = cytotoxicity in OVCAR8 ovarian cancer cells, dose response, PAX8 project, cell-based, plate reader, dry powder samples (AID 743197); type: functional; conditions: OVCAR-8
[4] = A375 melanoma cell viability loss, dose response, counter-screen for MITF inhibitor project, CellTiter-Glo luminescence, dry powder, set 4 (AID 624364); type: functional, cell-based; conditions: A-375;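 note: A375 melanoma cells are MITF independent so this is a counter screen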
[5] = A375 melanoma cell cytotoxicity, dose response, counter-screen for MITF inhibitor project, CellTiter-Glo luminescence, dry powder, set 2 (AID 624489); type: functional, cell-based; conditions: A-375;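 note: actives are compounds lowering A375 viability meaning general cytotoxicity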
[6] = A549 cell cytotoxicity, dose response, cytotoxicity control, plate reader, cherry-pick, antagonist series (AID 743412); type: functional, cell-based
[7] = HepG2 cell cytotoxicity, dose response, cytotoxicity control, plate reader, cherry-pick, antagonist series (AID 743416); type: functional, cell-based
[8] = LGR2 antagonists, dose response, cell-based, HEK293, CRE-luciferase reporter, cherry pick, set 2 (AID 743343); type: functional;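 note: transfected cells were stimulated with diluted bursicon conditioned medium after compound addition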
[9] = MC4R antagonists, dose response, counter-screen for LGR2 antagonist project, cell-based, plate reader, cherry pick (AID 743444); type: functional;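 note: transfected HEK 293 cells stimulated with alpha-MSH peptide; potency of inhibitors of the alpha-MSH evoked signal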
[10] = P. falciparum 3D7-ScDHODH growth inhibitors, dose response, SYBR Green, dry powder samples (AID 1159570); type: functional, cell-based;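 note: parasite growth measured after 72 hours of compound exposure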
[11] = HepG2 cell cytotoxicity, dose response, cytotoxicity control, plate reader, dry powder samples (AID 1159569); type: functional, cell-based;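 note: inhibitor potency with signal falling toward the positive control level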
[12] = P. falciparum Dd2 growth inhibitors, dose response, SYBR Green, cherry-picked samples (AID 1159567); type: functional, cell-based
[13] = P. falciparum Dd2 growth inhibitors, dose response, SYBR Green, dry powder samples (AID 1159566); type: functional, cell-based;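 note: potency for growth inhibition with lower SYBR green DNA signal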
[14] = P. falciparum ATP4 D1247Y mutant growth inhibitors, dose response, NITD609-resistant line, SYBR Green, dry powder (AID 1159571); type: functional, cell-based;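 note: parasites synchronized at ring stage by sorbitol before testing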
[15] = HepG2 cell cytotoxicity, dose response, cytotoxicity control, cherry-picked samples (AID 1159577); type: functional, cell-based
[16] = HeLa 2N DNA content increase, dose response, cell-based, IC50 (AID 1117349); type: functional
[17] = Concentration-dependent survival of SW480 colon cancer line, luminescence detection with CellTiter-Glo, half-maximal inhibitory concentration (AID 1117338); type: functional
[18] = RKO cell viability reduction, dose response, CellTiter-Glo luminescence (AID 1117322); type: functional
[19] = cytotoxicity toward HCT116 cells – cell-based, CellTiter-Glo luminescence, IC50, dose response (AID 1117332); type: functional; conditions: HCT-116
[20] = SNU-C1 cell viability reduction, dose response, CellTiter-Glo luminescence (AID 1117323); type: functional, cell-based
[21] = cytotoxicity toward Colo320 cells – cell-based, CellTiter-Glo luminescence, IC50, dose response (AID 1117334); type: functional; conditions: COLO 320
[22] = HeLa 4N DNA content increase, dose response, cell-based, IC50 (AID 1117351); type: functional
[23] = cytotoxicity toward HT-29 cells – cell-based, CellTiter-Glo luminescence, IC50, dose response (AID 1117330); type: functional
[24] = CellTiter-Glo luminescent dose response of DLD-1 viability loss (AID 1117352); type: functional
[25] = HCT116 cell viability decrease, GSK3B pretreatment – CellTiter-Glo, IC50, dose response (AID 1117339); type: functional; conditions: HCT-116

Chain of Paired box protein Pax-8 (Q06710 whole entry): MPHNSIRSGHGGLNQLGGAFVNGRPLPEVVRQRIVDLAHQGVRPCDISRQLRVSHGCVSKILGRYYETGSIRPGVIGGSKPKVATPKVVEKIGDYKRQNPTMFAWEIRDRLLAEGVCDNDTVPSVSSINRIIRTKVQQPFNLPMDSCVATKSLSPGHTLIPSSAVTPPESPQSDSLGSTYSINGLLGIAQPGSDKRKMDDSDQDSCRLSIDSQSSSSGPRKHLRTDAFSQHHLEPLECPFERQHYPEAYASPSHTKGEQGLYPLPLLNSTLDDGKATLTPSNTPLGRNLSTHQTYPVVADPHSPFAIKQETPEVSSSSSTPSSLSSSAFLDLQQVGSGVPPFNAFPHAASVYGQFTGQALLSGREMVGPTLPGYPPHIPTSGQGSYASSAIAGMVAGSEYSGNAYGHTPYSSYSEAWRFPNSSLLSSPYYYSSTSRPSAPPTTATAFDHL

COc1cccc(-c2ccc3c(c2)[C@H]2[C@H](CCN2S(=O)(=O)c2ccccc2F)[C@@H](CO)N3)c1
AC50 (Paired box protein Pax-8): 3.92 µM (active) | AC50 [1]: 19.1 µM (active) | AC50 [2]: 31.4 µM (active) | AC50 [3]: 21.9 µM (active)

O=C1C(NS(=O)(=O)c2ccccc2)=C(N2CCCCC2)C(=O)c2ccccc21
AC50 [4]: > 70 µM (inactive) | AC50 [5]: > 70 µM (inactive)

N#C[C@@H]1[C@H](c2ccc(C#Cc3ccccc3F)cc2)[C@@H](CO)N1C(=O)C1CCC1
AC50 [6]: 31.2 µM (active) | AC50 [7]: 31.5 µM (active) | AC50 [8]: 29.9 µM (active) | AC50 [9]: 22.5 µM (active)

C[C@@H]1CN([C@H](C)CO)C(=O)c2c(c3ccccc3n2C)-c2ccccc2CO[C@@H]1CN(C)C(=O)[C@H](C)c1ccccc1
AC50 [10]: 1.66 µM (active) | AC50 [11]: 45.5 µM (active) | AC50 [12]: 1.39 µM (active) | AC50 [13]: 1.1 µM (active) | AC50 [14]: 1.33 µM (active)

Cc1ccc(-c2ccc([C@@H]3[C@H](CO)N4CCCCN(C(=O)Nc5cccc(F)c5)C[C@@H]34)cc2)cc1
AC50 [1]: 7.83 µM (active) | AC50 [2]: 18.1 µM (active) | AC50 [3]: > 70 µM (inactive)

CCCC#Cc1ccc([C@H]2[C@H](CO)N3CCCCN(CC4CCOCC4)C[C@@H]23)cc1
AC50 [12]: 3.68 µM (active) | AC50 [15]: 26.9 µM (active)

CCCNC[C@@H]1[C@@H](c2ccc(C3=CCCC3)cc2)[C@@H](CO)N1C(=O)C1CCCC1
AC50 [12]: 4 µM (active) | AC50 [15]: 32.4 µM (active)

COc1cccc(NC(=O)N2[C@H](CO)[C@@H](c3ccccc3)[C@H]2CNCC(C)C)c1
AC50 [10]: 1.44 µM (active) | AC50 [11]: 43.5 µM (active) | AC50 [12]: 1.75 µM (active) | AC50 [13]: 1.58 µM (active) | AC50 [14]: 1.64 µM (active)

O=C(NC1=C(c2ccc(Oc3ccccc3)cc2)C(=O)c2ccccc2C1=O)c1ccccc1
AC50 [4]: > 70 µM (inactive) | AC50 [5]: > 70 µM (inactive)

O=[N+]([O-])c1ccc(Oc2ccc(N=C=S)cc2)cc1 [NITROSCANATE]
IC50 [16]: > 10 µM (inactive) | IC50 [17]: 1.63 µM (active) | IC50 [18]: 2.34 µM (active) | IC50 [19]: 2.77 µM (active) | IC50 [20]: 4.33 µM (active) | IC50 [21]: 1.46 µM (active) | IC50 [22]: > 10 µM (inactive) | IC50 [23]: 1.07 µM (active) | IC50 [24]: 2.1 µM (active) | IC50 [25]: 1.47 µM (active)
